Reference: US12281363B2, “Methods for detecting antiviral-drug resistant virus” (Secretary of State for Health and Social Care, priority 2018, dated 2025)
Read-outs that look alike come from different tables or passages of the source.

Tested on: HSV-2
Assay: Plaque reduction assay, HSV-2 clinical isolates on Vero cells
Type: cell-based
Conditions: Human alphaherpesvirus 2, Vero
From the text: Viral isolates were used to infect a sub-confluent monolayer of Vero cells at a concentration of 75 or 50 plaque forming units (PFU) per well for HSV-1 and HSV-2, respectively. […] CMC medium typically used to create a semisolid interface and prevents indiscrimate viral spreading. Other materials (e.g. agar) may also be used to create this interface.
Cells were fixed with 10% formalin and stained with crystal violet before enumeration of the plaques (microscopic observation or use of fluorescent antibodies for detection is also suitable). The data obtained from these experiments were then expressed as percent inhibition of viral infectivity relative to the no drug control.
Definitions of phenotypic drug susceptibility classification as sensitive or resistant were as follows: ACV, <3 μM or >40 μM; PCV, <10 μM or >40 μM; CDV, <24 μM or >30 μM; FOS, <250 μM or >400 μM; and ACV, <6.5 μM or >40 μM; PCV, <38 μM or >40 μM; FOS, <250 μM or >400 μM for HSV-1 and HSV-2, respectively. Any IC50 values falling in between these sensitive and resistant cut-offs were reported as intermediate resistance.
The phenotype (i.e. reactivity to a drug) of the virus was characterised by the plaque reduction assay as described above. The present inventors have characterised the resistance-causing phenotype of a large number of TK and DNA pol mutations.

`O=C(O)P(=O)(O)O` [Foscarnet, foscarnet] gave an IC50 (isolate HPG001, HSV-2 TK A125T (373G>A), read-out: Drug susceptibility (IC50 value)) of 236 µM, an IC50 (isolate HPG001, HSV-2 TK A125T (373G>A), read-out: Drug susceptibility Foscarnet (FOS)) of less than 250 µM and an IC50 (isolate HPG001, HSV-2 pol H714R (2141A>G), read-out: Drug susceptibility (IC50 value)) of 236 µM. The IC50 (isolate HPG001, HSV-2 pol H714R (2141A>G), read-out: Drug susceptibility Foscarnet (FOS)) was less than 250 µM, the IC50 (isolate HPG004, HSV-2 pol M494T (1481T>C), also pol S729N, read-out: Drug susceptibility (IC50 value)) was 349 µM and the IC50 (isolate HPG004, HSV-2 pol M494T (1481T>C), also pol S729N, read-out: Drug susceptibility Foscarnet (FOS)) was 250 to 400 µM. It also gave an IC50 (isolate HPG007, HSV-2 pol R628G (1882C>G), read-out: Drug susceptibility (IC50 value)) of 783 µM, an IC50 (isolate HPG007, HSV-2 pol R628G (1882C>G), read-out: Drug susceptibility Foscarnet (FOS)) greater than 400 µM and an IC50 (isolate HPG017, HSV-2 TK Q186H (558G>T), read-out: Drug susceptibility (IC50 value)) of 118 µM. The IC50 (isolate HPG017, HSV-2 TK Q186H (558G>T), read-out: Drug susceptibility Foscarnet (FOS)) was less than 250 µM, the IC50 (isolate HPG022, HSV-2 TK E213D (639A>C), read-out: Drug susceptibility (IC50 value)) was 82 µM and the IC50 (isolate HPG022, HSV-2 TK E213D (639A>C), read-out: Drug susceptibility Foscarnet (FOS)) was less than 250 µM. The IC50 (isolate HPG022, HSV-2 pol D174Y (520G>T), read-out: Drug susceptibility (IC50 value)) was 82 µM, the IC50 (isolate HPG022, HSV-2 pol D174Y (520G>T), read-out: Drug susceptibility Foscarnet (FOS)) was less than 250 µM and the IC50 (isolate HPG023, HSV-2 TK Q186H (558G>T), read-out: Drug susceptibility (IC50 value)) was 78 µM. The IC50 (isolate HPG023, HSV-2 TK Q186H (558G>T), read-out: Drug susceptibility Foscarnet (FOS)) was less than 250 µM, the IC50 (isolate HPG024, HSV-2 TK E213D (639A>C), read-out: Drug susceptibility (IC50 value)) was 88.7 µM and the IC50 (isolate HPG024, HSV-2 TK E213D (639A>C), read-out: Drug susceptibility Foscarnet (FOS)) was less than 250 µM. It also gave an IC50 (isolate HPG028, HSV-2 TK 98stop or A94fs (276delG, 278delG, 279delG, or 280delG), read-out: Drug susceptibility (IC50 value)) of 98.8 µM, an IC50 (isolate HPG028, HSV-2 TK 98stop or A94fs (276delG, 278delG, 279delG, or 280delG), read-out: Drug susceptibility Foscarnet (FOS)) of less than 250 µM and an IC50 (isolate HPG028, HSV-2 pol E776Q (2326G>C), also TK deletion (G) nt 276-280, read-out: Drug susceptibility (IC50 value)) of 98.8 µM. It also gave an IC50 (isolate HPG028, HSV-2 pol E776Q (2326G>C), also TK deletion (G) nt 276-280, read-out: Drug susceptibility Foscarnet (FOS)) of less than 250 µM, an IC50 (isolate HPG028, HSV-2 pol R775C, R775W (2323C>T; 2325C>G), also TK deletion (G) nt 276-280, read-out: Drug susceptibility (IC50 value)) of 98.8 µM and an IC50 (isolate HPG028, HSV-2 pol R775C, R775W (2323C>T; 2325C>G), also TK deletion (G) nt 276-280, read-out: Drug susceptibility Foscarnet (FOS)) of less than 250 µM. It also gave an IC50 (isolate HPG030, HSV-2 TK Q90stop (268C>T), read-out: Drug susceptibility (IC50 value)) of 92.3 µM, an IC50 (isolate HPG030, HSV-2 TK Q90stop (268C>T), read-out: Drug susceptibility Foscarnet (FOS)) of less than 250 µM and an IC50 (isolate HPG030, HSV-2 pol E761K (2281G>A), also TK Q90stop, read-out: Drug susceptibility (IC50 value)) of 92.3 µM. It also gave an IC50 (isolate HPG030, HSV-2 pol E761K (2281G>A), also TK Q90stop, read-out: Drug susceptibility Foscarnet (FOS)) of less than 250 µM, an IC50 (isolate HPG034, HSV-2 TK L313S (938A>C), read-out: Drug susceptibility Foscarnet (FOS)) of less than 250 µM and an IC50 (isolate HPG036, HSV-2 TK E84K (250G>A), read-out: Drug susceptibility (IC50 value)) of 78.8 µM. It also gave an IC50 (isolate HPG036, HSV-2 TK E84K (250G>A), read-out: Drug susceptibility Foscarnet (FOS)) of less than 250 µM, an IC50 (isolate HPG038, HSV-2 TK R34C (100C>T), read-out: Drug susceptibility (IC50 value)) of 73.7 µM and an IC50 (isolate HPG038, HSV-2 TK R34C (100C>T), read-out: Drug susceptibility Foscarnet (FOS)) of less than 250 µM. The IC50 (isolate HPG044, HSV-2 TK M86L (256A>C), read-out: Drug susceptibility (IC50 value)) was 73.8 µM, the IC50 (isolate HPG044, HSV-2 TK M86L (256A>C), read-out: Drug susceptibility Foscarnet (FOS)) was less than 250 µM and the IC50 (isolate HPG048, HSV-2 TK Q90stop (268C>T), read-out: Drug susceptibility (IC50 value)) was 56.9 µM. For the same molecule, the IC50 (isolate HPG048, HSV-2 TK Q90stop (268C>T), read-out: Drug susceptibility Foscarnet (FOS)) was less than 250 µM, the IC50 (isolate HPG048, HSV-2 pol E761K (2281G>A), also TK Q90stop, read-out: Drug susceptibility (IC50 value)) was 56.9 µM and the IC50 (isolate HPG048, HSV-2 pol E761K (2281G>A), also TK Q90stop, read-out: Drug susceptibility Foscarnet (FOS)) was less than 250 µM. For the same molecule, the IC50 (isolate HPG057, HSV-2 TK 98stop or A94fs (276delG, 278delG, 279delG, or 280delG), read-out: Drug susceptibility (IC50 value)) was 98.5 µM, the IC50 (isolate HPG057, HSV-2 TK 98stop or A94fs (276delG, 278delG, 279delG, or 280delG), read-out: Drug susceptibility Foscarnet (FOS)) was less than 250 µM and the IC50 (isolate HPG058, HSV-2 TK 183stop or P154fs (458delC, 459delC, 460delC, or 461delC), read-out: Drug susceptibility (IC50 value)) was 59 µM. It also gave an IC50 (isolate HPG058, HSV-2 TK 183stop or P154fs (458delC, 459delC, 460delC, or 461delC), read-out: Drug susceptibility Foscarnet (FOS)) of less than 250 µM, an IC50 (read-out: Drug susceptibility (IC50 value), isolate HPG034, HSV-2 TK L313S (938A>C)) of 73.5 µM and an IC50 (read-out: Drug susceptibility (IC50 value), isolate HPG056, HSV-2 pol M447L (1339A>C)) of 88 µM. For the same molecule, the IC50 (read-out: Drug susceptibility Foscarnet (FOS), isolate HPG056, HSV-2 pol M447L (1339A>C)) was less than 250 µM.
